Results taken from PubChem BioAssay AID214 (DTP/NCI, 2004).
Values joined by “and” are separate entries in the source; they are usually repeats but may differ in a detail not shown here. Equal entries are not always repeated. Records with an inconclusive call do not appear.

Tested on: B6C3F1 mice, colon carcinoma 38 s.c., T/C
Assay: NCI In Vivo Anticancer Drug Screen. Data for tumor model Colon Carcinoma 38 (subcutaneous) in B6C3F1 mice
Details: endpoint: median tumor weight (est.), higher = larger tumour
Experimental: The antitumor activity of compounds was measured in mice bearing transplantable tumors. Survival or tumor size were measured and the results are expressed as the measurement made in the treated group (T) divided by the measurement made in the vehicle treated control group (C). The tumor model used in this assay is Colon Carcinoma 38 (subcutaneous) in B6C3F1 mice

[1] = dose: 400.0 mg/kg/injection, schedule: Q07DX002 (ip), vehicle: Klucel (hydroxypropylcellulose) (HPC)
[2] = dose: 50.0 mg/kg/injection, schedule: Q07DX002 (ip), vehicle: Klucel (hydroxypropylcellulose) (HPC)
[3] = dose: 100.0 mg/kg/injection, schedule: Q07DX002 (ip), vehicle: Klucel (hydroxypropylcellulose) (HPC)
[4] = dose: 200.0 mg/kg/injection, schedule: Q07DX002 (ip), vehicle: Klucel (hydroxypropylcellulose) (HPC)
[5] = dose: 4.0 mg/kg/injection, schedule: Q07DX002 (ip), vehicle: saline
[6] = dose: 100.0 mg/kg/injection, schedule: Q07DX002 (ip), vehicle: saline with Tween-80
[7] = dose: 200.0 mg/kg/injection, schedule: Q07DX002 (ip), vehicle: saline with Tween-80
[8] = dose: 25.0 mg/kg/injection, schedule: Q07DX002 (ip), vehicle: Klucel (hydroxypropylcellulose) (HPC)
[9] = dose: 0.5 mg/kg/injection, schedule: Q07DX002 (ip), vehicle: saline
[10] = dose: 50.0 mg/kg/injection, schedule: Q07DX002 (ip), vehicle: saline with Tween-80
[11] = dose: 12.5 mg/kg/injection, schedule: Q07DX002 (ip), vehicle: saline with Tween-80
[12] = dose: 25.0 mg/kg/injection, schedule: Q07DX002 (ip), vehicle: saline with Tween-80

## CC(=O)C(=O)O.CC(=O)C(=O)O.[NH-]C1CCCCC1[NH-].[Pt+2] (centres undefined)
dose: 6.25 mg/kg/injection, schedule: Q07DX002 (ip), vehicle: dextrose
  T/C: 83 % of control
dose: 12.5 mg/kg/injection, schedule: Q07DX002 (ip), vehicle: dextrose
  T/C: 31 % of control
dose: 25.0 mg/kg/injection, schedule: Q07DX002 (ip), vehicle: dextrose
  T/C: 31 % of control
dose: 50.0 mg/kg/injection, schedule: Q07DX002 (ip), vehicle: dextrose
  T/C: 16 % of control

## O=c1[nH]c(=O)n([C@H]2CCCO2)cc1F
dose: 80.0 mg/kg/injection, schedule: Q07DX003 (ip), vehicle: Klucel (hydroxypropylcellulose) (HPC)
  T/C: 51 % of control
dose: 160.0 mg/kg/injection, schedule: Q07DX003 (ip), vehicle: Klucel (hydroxypropylcellulose) (HPC)
  T/C: 85 % of control
dose: 320.0 mg/kg/injection, schedule: Q07DX003 (ip), vehicle: Klucel (hydroxypropylcellulose) (HPC)
  T/C: 80 % of control
dose: 640.0 mg/kg/injection, schedule: Q07DX003 (ip), vehicle: Klucel (hydroxypropylcellulose) (HPC)
  T/C: 25 % of control

## CO[C@H]1C[C@](C)(O)Cc2cc3c(c(O)c21)C(=O)c1c(O)cc2c(c1C3=O)O[C@@H]1O[C@@]2(C)[C@H](O)[C@@H](N(C)C)[C@@H]1O
dose: 12.5 mg/kg/injection, schedule: Q07DX002 (ip), vehicle: other
  T/C: 124 % of control
dose: 25.0 mg/kg/injection, schedule: Q07DX002 (ip), vehicle: other
  T/C: 102 % of control
dose: 50.0 mg/kg/injection, schedule: Q07DX002 (ip), vehicle: other
  T/C: 56 % of control
dose: 100.0 mg/kg/injection, schedule: Q07DX002 (ip), vehicle: other
  T/C: 19 % of control

## Cc1cc(=O)c2cccc(CC(=O)O)c2o1
[1]
  T/C: 117 % of control

## O=C1N[C@@H]2C(=C[C@H](O)[C@@H](O)[C@H]2O)c2cc3c(c(O)c21)OCO3
dose: 1.25 mg/kg/injection, schedule: Q07DX002 (ip), vehicle: saline with Tween-80
  T/C: 123 % of control
dose: 5.0 mg/kg/injection, schedule: Q07DX002 (ip), vehicle: saline with Tween-80
  T/C: 60 % of control
dose: 10.0 mg/kg/injection, schedule: Q07DX002 (ip), vehicle: saline with Tween-80
  T/C: 69 % of control
dose: 20.0 mg/kg/injection, schedule: Q07DX002 (ip), vehicle: saline with Tween-80
  T/C: 43 % of control

## CC(C)NCC(O)COc1ccc(O)c(O)c1 (centres undefined)
dose: 50.0 mg/kg/injection, schedule: Q07DX002 (ip), vehicle: saline
  T/C: 97 % of control
dose: 100.0 mg/kg/injection, schedule: Q07DX002 (ip), vehicle: saline
  T/C: 94 % of control

## OCC(O)C(O)C(O)C(O)CO (centres undefined)
dose: 75.0 mg/kg/injection, schedule: Q07DX002 (ip), vehicle: saline
  T/C: 90 % of control
dose: 150.0 mg/kg/injection, schedule: Q07DX002 (ip), vehicle: saline
  T/C: 66 % of control
dose: 300.0 mg/kg/injection, schedule: Q07DX002 (ip), vehicle: saline
  T/C: 111 % of control
dose: 600.0 mg/kg/injection, schedule: Q07DX002 (ip), vehicle: saline
  T/C: 92 % of control
dose: 1200.0 mg/kg/injection, schedule: Q07DX002 (ip), vehicle: saline
  T/C: 86 % of control

## Cn1cc(C2NC(=O)c3ccccc3N2)c2ccccc21 (centres undefined)
[2]
  T/C: 46 % of control
[3]
  T/C: 244 % of control
[4]
  T/C: 42 % of control and 63 % of control
[1]
  T/C: 151 % of control
dose: 1600.0 mg/kg/injection, schedule: Q07DX002 (ip), vehicle: Klucel (hydroxypropylcellulose) (HPC)
  T/C: 96 % of control

## Cc1c(N)nc([C@H](CC(N)=O)NC[C@H](N)C(N)=O)nc1C(=O)N[C@H](C(=O)N[C@H](C)[C@@H](O)CC(=O)N[C@H](C(=O)NC(O[C@@H]1O[C@@H](C)[C@@H](N)[C@@H](O)[C@H]1O)C(O)c1nc(-c2nc(C(=O)NCCCCN)cs2)cs1)[C@@H](C)O)[C@@H](O[C@@H]1O[C@@H](CO)[C@@H](O)[C@H](O)[C@@H]1O[C@H]1O[C@H](CO)[C@@H](O)[C@H](OC(N)=O)[C@@H]1O)c1c[nH]cn1 (some centres undefined)
[5]
  T/C: 54 % of control
dose: 8.0 mg/kg/injection, schedule: Q07DX002 (ip), vehicle: saline
  T/C: 35 % of control
dose: 16.0 mg/kg/injection, schedule: Q07DX002 (ip), vehicle: saline
  T/C: 13 % of control
dose: 32.0 mg/kg/injection, schedule: Q07DX002 (ip), vehicle: saline
  T/C: 25 % of control
dose: 64.0 mg/kg/injection, schedule: Q07DX002 (ip), vehicle: saline
  T/C: 9 % of control

## [Na+]
dose: 50.0 mg/kg/injection, schedule: Q07DX002 (ip), vehicle: water
  T/C: 100 % of control
dose: 100.0 mg/kg/injection, schedule: Q07DX002 (ip), vehicle: water
  T/C: 57 % of control
dose: 200.0 mg/kg/injection, schedule: Q07DX002 (ip), vehicle: water
  T/C: 68 % of control
dose: 400.0 mg/kg/injection, schedule: Q07DX002 (ip), vehicle: water
  T/C: 58 % of control
dose: 800.0 mg/kg/injection, schedule: Q07DX002 (ip), vehicle: water
  T/C: 63 % of control

## CCCCCCCCCCCCCCCCCCCCCC(=O)Nc1ccn(C2OC(CO)C(O)C2O)c(=O)n1 (centres undefined)
[6]
  T/C: 83 % of control
[7]
  T/C: 35 % of control

## N=C(N)CCCCCCCCC(=N)N
dose: 6.25 mg/kg/injection, schedule: Q07DX002 (ip), vehicle: Klucel (hydroxypropylcellulose) (HPC)
  T/C: 169 % of control
dose: 12.5 mg/kg/injection, schedule: Q07DX002 (ip), vehicle: Klucel (hydroxypropylcellulose) (HPC)
  T/C: 109 % of control
[8]
  T/C: 109 % of control

## CO[C@@]12[C@H](COC(N)=O)C3=C(C(=O)C(C)=C(N)C3=O)N1C[C@@H]1N[C@@H]12
[9]
  T/C: 77 % of control
[5]
  T/C: 18 % of control and 19 % of control

## CCNC(=O)[B-][N+](C)(C)C
[8]
  T/C: 101 % of control
[2]
  T/C: 55 % of control
[3]
  T/C: 87 % of control
[4]
  T/C: 107 % of control
[1]
  T/C: 81 % of control

## Nc1n[nH]c2ccccc12
dose: 50.0 mg/kg/injection, schedule: Q07DX002 (ip), vehicle: acid diluted with saline
  T/C: 105 % of control
dose: 100.0 mg/kg/injection, schedule: Q07DX002 (ip), vehicle: acid diluted with saline
  T/C: 112 % of control
dose: 200.0 mg/kg/injection, schedule: Q07DX002 (ip), vehicle: acid diluted with saline
  T/C: 84 % of control
dose: 400.0 mg/kg/injection, schedule: Q07DX002 (ip), vehicle: acid diluted with saline
  T/C: 59 % of control
dose: 800.0 mg/kg/injection, schedule: Q07DX002 (ip), vehicle: acid diluted with saline
  T/C: 74 % of control

## O=[N+]([O-])c1ccc(N2CCOCC2)c2c1no[n+]2[O-]
[10]
  T/C: 165 % of control
[6]
  T/C: 98 % of control
[7]
  T/C: 103 % of control

## O=C(CCCCCCC(=O)ON1C(=O)CCC1=O)ON1C(=O)CCC1=O
[11]
  T/C: 74 % of control
[12]
  T/C: 69 % of control
[7]
  T/C: 108 % of control

## COC(=O)C[C@](O)(CCC(C)(C)O)C(=O)O[C@@H]1C(OC)=C[C@]23CCCN2CCc2cc4c(cc2[C@H]13)OCO4
[9]
  T/C: 117 % of control
dose: 1.0 mg/kg/injection, schedule: Q07DX002 (ip), vehicle: saline
  T/C: 54 % of control
dose: 2.0 mg/kg/injection, schedule: Q07DX002 (ip), vehicle: saline
  T/C: 40 % of control
[5]
  T/C: 14 % of control

## N=c1c(C(=O)OCc2ccccc2)ncc(CCl)n1O
[10]
  T/C: 76 % of control
[6]
  T/C: 107 % of control
dose: 400.0 mg/kg/injection, schedule: Q07DX002 (ip), vehicle: saline with Tween-80
  T/C: 113 % of control
dose: 800.0 mg/kg/injection, schedule: Q07DX002 (ip), vehicle: saline with Tween-80
  T/C: 72 % of control

## CC1c2ccccc2CC(CCN(C)C)c2ccccc21 (centres undefined)
[11]
  T/C: 164 % of control
[12]
  T/C: 84 % of control
[10]
  T/C: 108 % of control
[7]
  T/C: 69 % of control

## NS(=O)(=O)OCCCCCCCOS(N)(=O)=O
[11]
  T/C: 214 % of control
[12]
  T/C: 270 % of control
[10]
  T/C: 192 % of control
[6]
  T/C: 94 % of control
[7]
  T/C: 104 % of control

## COc1ccccc1CC(=O)O
dose: 75.0 mg/kg/injection, schedule: Q07DX002 (ip), vehicle: saline with Tween-80
  T/C: 78 % of control
dose: 150.0 mg/kg/injection, schedule: Q07DX002 (ip), vehicle: saline with Tween-80
  T/C: 107 % of control
dose: 300.0 mg/kg/injection, schedule: Q07DX002 (ip), vehicle: saline with Tween-80
  T/C: 98 % of control

## OC(CBr)C(O)C(O)C(O)CBr (centres undefined)
[8]
  T/C: 83 % of control
[2]
  T/C: 83 % of control
